Assay results as given in patent US10479795B2 (Incyte Corporation, priority 2016, dated 2019).
Where a name gives a salt, the structure may show the parent alone.

How the values were obtained:
[1] = system: Phosphorylated Ribosomal Protein S6 (RPS6); assay: THP-1 RPS6 ELISA Assay; assay type: cell-based, Human; conditions: Homo sapiens; THP-1 cells; read-out: PI3Kγ_THP1_RPS6_ELISA IC50
In short: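 IC50 values come from a curve of percent inhibition against log compound concentration, using phospho-RPS6 ELISA (450 nm) on THP-1 lysates. Cells were serum-starved overnight, exposed to compound for 2 h at 37 °C, then challenged 15 min with 10 nM MCP-1.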

[2] = biological target: PI3Kγ (p110γ) Recombinant Human Protein (Homo sapiens (Human), UniProt P48736); assay: PI3K-γ Scintillation Proximity Assay; assay type: biochemical; conditions: read-out: PI3Kγ IC50
Sequence of PI3Kγ (p110γ) Recombinant Human Protein (P48736 whole entry): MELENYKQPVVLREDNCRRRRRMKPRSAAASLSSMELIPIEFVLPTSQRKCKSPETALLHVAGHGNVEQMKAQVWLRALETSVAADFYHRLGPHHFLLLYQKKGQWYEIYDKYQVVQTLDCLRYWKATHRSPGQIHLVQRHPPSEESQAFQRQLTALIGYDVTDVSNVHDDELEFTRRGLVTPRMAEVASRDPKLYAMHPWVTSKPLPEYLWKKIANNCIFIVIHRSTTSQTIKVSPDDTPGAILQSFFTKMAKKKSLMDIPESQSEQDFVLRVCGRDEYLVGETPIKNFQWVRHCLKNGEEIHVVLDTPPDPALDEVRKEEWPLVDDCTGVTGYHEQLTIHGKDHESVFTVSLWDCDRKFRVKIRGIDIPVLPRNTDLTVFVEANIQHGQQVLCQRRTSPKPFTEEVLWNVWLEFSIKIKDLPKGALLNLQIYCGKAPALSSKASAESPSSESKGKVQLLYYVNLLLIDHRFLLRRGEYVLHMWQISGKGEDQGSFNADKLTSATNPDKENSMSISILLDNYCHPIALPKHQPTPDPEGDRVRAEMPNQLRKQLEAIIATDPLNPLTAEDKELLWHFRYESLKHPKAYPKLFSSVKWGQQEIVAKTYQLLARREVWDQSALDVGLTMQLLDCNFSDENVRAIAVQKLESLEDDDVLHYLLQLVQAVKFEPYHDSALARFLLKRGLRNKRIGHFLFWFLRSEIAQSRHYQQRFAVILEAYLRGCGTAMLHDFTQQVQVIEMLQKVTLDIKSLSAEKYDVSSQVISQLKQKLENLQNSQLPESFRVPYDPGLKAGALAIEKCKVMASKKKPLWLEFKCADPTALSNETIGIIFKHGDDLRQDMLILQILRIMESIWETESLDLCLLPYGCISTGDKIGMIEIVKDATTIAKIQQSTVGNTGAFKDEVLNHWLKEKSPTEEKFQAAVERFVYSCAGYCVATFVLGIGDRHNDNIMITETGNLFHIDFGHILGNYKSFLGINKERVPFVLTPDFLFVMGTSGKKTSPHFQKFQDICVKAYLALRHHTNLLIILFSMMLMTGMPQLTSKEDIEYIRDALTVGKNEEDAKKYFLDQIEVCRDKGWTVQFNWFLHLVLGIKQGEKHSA
In short: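 Radiometric SPA readout: […] bound to WGA beads after overnight shaking, IC50 derived from % activity of DMSO control. Reaction used human p110γ, 2 μM ATP, 20 μM PIP2, pH 6.7 MOPS buffer with MgCl2, DTT, CHAPS, 2% DMSO, room temperature.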

[3] = biological target: PI3Kδ (p110δ/p85α) Recombinant Human Protein (Homo sapiens (Human), UniProt O00329); assay: PI3Kδ Scintillation Proximity Assay; assay type: biochemical
Sequence of PI3Kδ (p110δ/p85α) Recombinant Human Protein (O00329 whole entry): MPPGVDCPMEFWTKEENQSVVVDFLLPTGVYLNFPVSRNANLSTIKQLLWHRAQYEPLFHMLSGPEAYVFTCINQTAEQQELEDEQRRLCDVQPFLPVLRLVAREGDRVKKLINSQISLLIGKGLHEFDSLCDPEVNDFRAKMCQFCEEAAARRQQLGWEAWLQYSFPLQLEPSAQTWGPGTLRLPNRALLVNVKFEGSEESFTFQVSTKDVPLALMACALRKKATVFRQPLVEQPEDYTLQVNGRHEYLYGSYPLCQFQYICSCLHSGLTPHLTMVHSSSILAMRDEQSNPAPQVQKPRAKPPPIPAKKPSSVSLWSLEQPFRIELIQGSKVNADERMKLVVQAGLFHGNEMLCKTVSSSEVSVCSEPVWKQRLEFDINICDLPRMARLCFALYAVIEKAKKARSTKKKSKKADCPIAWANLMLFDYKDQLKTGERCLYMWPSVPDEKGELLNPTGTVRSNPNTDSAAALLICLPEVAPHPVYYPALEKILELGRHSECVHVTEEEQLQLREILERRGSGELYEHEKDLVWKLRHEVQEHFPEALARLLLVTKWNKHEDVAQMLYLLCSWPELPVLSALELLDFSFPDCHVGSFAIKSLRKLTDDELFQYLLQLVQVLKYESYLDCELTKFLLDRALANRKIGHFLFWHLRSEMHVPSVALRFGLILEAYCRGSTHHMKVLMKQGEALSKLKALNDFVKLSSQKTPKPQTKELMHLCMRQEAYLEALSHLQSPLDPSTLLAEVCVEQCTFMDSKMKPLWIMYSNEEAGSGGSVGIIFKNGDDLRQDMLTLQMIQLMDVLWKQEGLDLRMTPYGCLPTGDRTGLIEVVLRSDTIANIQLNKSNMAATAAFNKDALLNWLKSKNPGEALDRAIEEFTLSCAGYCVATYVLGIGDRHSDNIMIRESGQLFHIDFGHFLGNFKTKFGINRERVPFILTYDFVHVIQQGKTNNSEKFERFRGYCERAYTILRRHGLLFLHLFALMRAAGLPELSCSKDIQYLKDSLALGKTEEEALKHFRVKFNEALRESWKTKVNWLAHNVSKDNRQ
Sequence of PI3Kδ (p110δ/p85α) Recombinant Human Protein (P27986 whole entry partner): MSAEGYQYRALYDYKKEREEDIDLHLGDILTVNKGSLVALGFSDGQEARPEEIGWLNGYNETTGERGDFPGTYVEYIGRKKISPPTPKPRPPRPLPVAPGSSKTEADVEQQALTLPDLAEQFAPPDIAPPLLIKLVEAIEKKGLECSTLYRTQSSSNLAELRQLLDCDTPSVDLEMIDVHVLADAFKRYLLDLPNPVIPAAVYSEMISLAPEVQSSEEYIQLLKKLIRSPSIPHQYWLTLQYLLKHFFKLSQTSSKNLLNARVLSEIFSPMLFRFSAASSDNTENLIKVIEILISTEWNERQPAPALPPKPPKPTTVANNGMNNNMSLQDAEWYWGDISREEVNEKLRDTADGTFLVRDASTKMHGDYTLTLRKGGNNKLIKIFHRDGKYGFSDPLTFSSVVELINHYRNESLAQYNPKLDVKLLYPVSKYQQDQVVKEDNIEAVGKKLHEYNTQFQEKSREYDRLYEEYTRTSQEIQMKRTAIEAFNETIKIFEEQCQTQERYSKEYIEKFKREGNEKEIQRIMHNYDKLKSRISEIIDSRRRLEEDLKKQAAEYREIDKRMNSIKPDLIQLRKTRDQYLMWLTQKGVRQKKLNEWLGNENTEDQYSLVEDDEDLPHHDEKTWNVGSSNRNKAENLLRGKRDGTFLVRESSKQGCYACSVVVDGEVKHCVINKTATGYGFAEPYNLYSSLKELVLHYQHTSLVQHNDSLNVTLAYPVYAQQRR
In short: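 IC50 was fitted to percent solvent-control activity from SPA scintillation counts after WGA bead capture of 33P-labelled lipid product. Reaction: 120 min, room temperature, 3.4 nM p110δ/p85α, 20 μM PIP2, 2 μM ATP with tracer, MOPS pH 6.7 buffer containing MgCl2, DTT, CHAPS, 2% DMSO.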

SMILES: Cc1ccc(S(=O)(=O)NC(C)(C)C(N)=O)cc1-c1cnc2c(N)ncnn12 [Example 190, 2-((3-(4-aminoimidazo[2,1-f][1,2,4]triazin-7-yl)-4-methylphenyl)sulfonamido)-2-methylpropanamide trifluoroacetate]
- IC50 [1]: > 1000 nM
- IC50 [2]: < 100 nM
- IC50 [3]: 500 to 2000 nM

SMILES: Cc1ccc(S(=O)(=O)NC2(C#N)CCC2)cc1-c1cnc2c(N)ncnn12 [Example 192, 3-(4-aminoimidazo[2,1-f][1,2,4]triazin-7-yl)-N-(1-cyanocyclobutyl)-4-methylbenzenesulfonamide trifluoroacetate]
- IC50 [1]: 500 to 1000 nM
- IC50 [2]: < 100 nM
- IC50 [3]: 100 to 500 nM

SMILES: Cc1ccc(S(=O)(=O)N2CCC3(CCCO3)CC2)cc1-c1cnc2c(N)ncnn12 [Example 194, 7-(5-((1-Oxa-8-azaspiro[4.5]decan-8-yl)sulfonyl)-2-methylphenyl)imidazo[2,1-f][1,2,4]triazin-4-amine]
- IC50 [1]: 100 to 500 nM
- IC50 [2]: < 100 nM
- IC50 [3]: 500 to 2000 nM

SMILES: Cc1ccc(S(=O)(=O)N2CC[C@H](O)C2)cc1-c1cnc2c(N)ncnn12 [Example 197, (S)-1-((3-(4-Aminoimidazo[2,1-f][1,2,4]triazin-7-yl)-4-methylphenyl)sulfonyl)pyrrolidin-3-ol]
- IC50 [1]: 500 to 1000 nM
- IC50 [2]: < 100 nM
- IC50 [3]: 500 to 2000 nM

SMILES: CC(=O)NC1CCN(S(=O)(=O)c2ccc(C)c(-c3cnc4c(N)ncnn34)c2)C1 (stereo not drawn) [Example 199, N-(1-((3-(4-Aminoimidazo[2,1-f][1,2,4]triazin-7-yl)-4-methylphenyl)sulfonyl)pyrrolidin-3-yl)acetamide]
- IC50 [1]: 500 to 1000 nM
- IC50 [2]: < 100 nM
- IC50 [3]: 500 to 2000 nM

SMILES: Cc1ccc(S(=O)(=O)N2CCC3(CCCOC3)C2)cc1-c1cnc2c(N)ncnn12 (stereo not drawn) [Example 203, 7-(5-((7-Oxa-2-azaspiro[4.5]decan-2-yl)sulfonyl)-2-methylphenyl)imidazo[2,1-f][1,2,4]triazin-4-amine]
- IC50 [1]: 500 to 1000 nM
- IC50 [2]: < 100 nM
- IC50 [3]: 100 to 500 nM

SMILES: Cc1ccc(S(=O)(=O)N2CCC3(CCO3)C2)cc1-c1cnc2c(N)ncnn12 (stereo not drawn) [Example 205, 7-(5-((1-Oxa-6-azaspiro[3.4]octan-6-yl)sulfonyl)-2-methylphenyl)imidazo[2,1-f][1,2,4]triazin-4-amine]
- IC50 [1]: > 1000 nM
- IC50 [2]: < 100 nM
- IC50 [3]: 500 to 2000 nM

SMILES: Cc1ccc(S(=O)(=O)N2CCC3(CCOCC3)C2C)cc1-c1cnc2c(N)ncnn12 (stereo not drawn) [Example 206, 7-(2-Methyl-5-((1-methyl-8-oxa-2-azaspiro[4.5]decan-2-yl)sulfonyl)phenyl)imidazo[2,1-f][1,2,4]triazin-4-amine]
- IC50 [1]: > 1000 nM
- IC50 [2]: < 100 nM
- IC50 [3]: 500 to 2000 nM

SMILES: Cc1ccc(S(=O)(=O)N2CCCC23CCOC3)cc1-c1cnc2c(N)ncnn12 (stereo not drawn) [Example 208, 7-(5-((7-Oxa-1-azaspiro[4.4]nonan-1-yl)sulfonyl)-2-methylphenyl)imidazo[2,1-f][1,2,4]triazin-4-amine]
- IC50 [1]: 500 to 1000 nM
- IC50 [2]: < 100 nM
- IC50 [3]: 500 to 2000 nM

SMILES: Cc1ccc(S(=O)(=O)N2CC3CCOCC3C2)cc1-c1cnc2c(N)ncnn12 (stereo not drawn) [Example 210, 7-(5-((Hexahydropyrano[3,4-c]pyrrol-2(3H)-yl)sulfonyl)-2-methylphenyl)imidazo[2,1-f][1,2,4]triazin-4-amine]
- IC50 [1]: 100 to 500 nM
- IC50 [2]: < 100 nM
- IC50 [3]: 100 to 500 nM

SMILES: Cc1ccc(S(=O)(=O)N2CC(F)(F)C[C@H]2CO)cc1-c1cnc2c(N)ncnn12 [Example 212, (S)-(1-((3-(4-Aminoimidazo[2,1-f][1,2,4]triazin-7-yl)-4-methylphenyl)sulfonyl)-4,4-difluoropyrrolidin-2-yl)methanol]
- IC50 [1]: 500 to 1000 nM
- IC50 [2]: < 100 nM
- IC50 [3]: 500 to 2000 nM

SMILES: Cc1ccc(S(=O)(=O)N[C@@H](C)CO)cc1-c1cnc2c(N)nc(C(F)(F)F)nn12 [Example 249, (S)-3-(4-Amino-2-(trifluoromethyl)imidazo[2,1-f][1,2,4]triazin-7-yl)-N-(1-hydroxypropan-2-yl)-4-methylbenzenesulfonamide]
- IC50 [1]: 100 to 500 nM
- IC50 [2]: < 100 nM
- IC50 [3]: 100 to 500 nM

SMILES: Cc1ccc(S(=O)(=O)NC23CC(C#N)(C2)C3)cc1-c1cnc2c(N)ncnn12 [Example 250, 3-(4-Aminoimidazo[2,1-f][1,2,4]triazin-7-yl)-N-(3-cyanobicyclo[1.1.1]pentan-1-yl)-4-methylbenzenesulfonamide]
- IC50 [1]: 100 to 500 nM
- IC50 [2]: < 100 nM
- IC50 [3]: 100 to 500 nM

SMILES: Cc1ccc(S(=O)(=O)NC23CCC(C#N)(C2)C3)cc1-c1cnc2c(N)ncnn12 [Example 251, 3-(4-Aminoimidazo[2,1-f][1,2,4]triazin-7-yl)-N-(4-cyanobicyclo[2.1.1]hexan-1-yl)-4-methylbenzenesulfonamide trifluoroacetate salt]
- IC50 [1]: < 100 nM
- IC50 [2]: < 100 nM
- IC50 [3]: 100 to 500 nM

SMILES: [2H]C([2H])([2H])c1ccc(S(=O)(=O)NC23CCC(O)(C2)C3)cc1-c1cnc2c(N)nc(C(F)(F)F)cn12 [Example 252, 3-(8-Amino-6-(trifluoromethyl)imidazo[1,2-a]pyrazin-3-yl)-N-(4-hydroxybicyclo[2.1.1]hexan-1-yl)-4-(methyl-d3)benzenesulfonamide]
- IC50 [1]: 100 to 500 nM
- IC50 [2]: < 100 nM
- IC50 [3]: 100 to 500 nM

SMILES: [2H]C([2H])([2H])c1ccc(S(=O)(=O)NC23CCC(C#N)(C2)C3)cc1-c1cnc2c(N)ncnn12 [Example 253, 3-(4-Aminoimidazo[2,1-f][1,2,4]triazin-7-yl)-N-(4-cyanobicyclo[2.1.1]hexan-1-yl)-4-(methyl-d3)benzenesulfonamide (crystalline free base)]
- IC50 [1]: < 100 nM
- IC50 [2]: < 100 nM
- IC50 [3]: 100 to 500 nM

SMILES: Cl.[2H]C([2H])([2H])c1ccc(S(=O)(=O)NC23CCC(C#N)(C2)C3)cc1-c1cnc2c(N)ncnn12 [Example 254, 3-(4-Aminoimidazo[2,1-f][1,2,4]triazin-7-yl)-N-(4-cyanobicyclo[2.1.1]hexan-1-yl)-4-(methyl-d3)benzenesulfonamide crystalline hydrochloric acid salt]
- IC50 [1]: < 100 nM
- IC50 [2]: < 100 nM
- IC50 [3]: 100 to 500 nM

SMILES: O=S(=O)(O)c1ccccc1.[2H]C([2H])([2H])c1ccc(S(=O)(=O)NC23CCC(C#N)(C2)C3)cc1-c1cnc2c(N)ncnn12 [Example 255, 3-(4-Aminoimidazo[2,1-f][1,2,4]triazin-7-yl)-N-(4-cyanobicyclo[2.1.1]hexan-1-yl)-4-(methyl-d3)benzenesulfonamide crystalline benzenesulfonic acid salt]
- IC50 [1]: < 100 nM
- IC50 [2]: < 100 nM
- IC50 [3]: 100 to 500 nM

SMILES: Cc1ncc(S(=O)(=O)NC23CCC(C#N)(C2)C3)cc1-c1cnc2c(N)ncnn12 [Example 256, 5-(4-Aminoimidazo[2,1-f][1,2,4]triazin-7-yl)-N-(4-cyanobicyclo[2.1.1]hexan-1-yl)-6-methylpyridine-3-sulfonamide trifluoroacetate salt]
- IC50 [1]: 100 to 500 nM
- IC50 [2]: < 100 nM
- IC50 [3]: 100 to 500 nM

SMILES: Cc1ncc(S(=O)(=O)NC23CCC(C#N)(C2)C3)cc1-c1cnc2c(N)nc(C(F)(F)F)cn12 [Example 257, 5-(8-amino-6-(trifluoromethyl)imidazo[1,2-a]pyrazin-3-yl)-N-(4-cyanobicyclo[2.1.1]hexan-1-yl)-6-methylpyridine-3-sulfonamide]
- IC50 [1]: > 1000 nM
- IC50 [2]: < 100 nM
- IC50 [3]: 500 to 2000 nM

SMILES: Cc1nc2c(N)ncnn2c1-c1cccc(S(=O)(=O)NC23CCC(C#N)(C2)C3)c1 [Example 258, 3-(4-Amino-6-methylimidazo[2,1-f][1,2,4]triazin-7-yl)-N-(4-cyanobicyclo[2.1.1]hexan-1-yl)benzenesulfonamide trifluoroacetate salt]
- IC50 [1]: 500 to 1000 nM
- IC50 [2]: < 100 nM
- IC50 [3]: 100 to 500 nM

SMILES: Cc1ccc(S(=O)(=O)NC23CCC(CO)(C2)C3)cc1-c1cnc2c(N)nc(C3CC3)nn12 [Example 259, 3-(4-Amino-2-cyclopropylimidazo[2,1-f][1,2,4]triazin-7-yl)-N-(4-(hydroxymethyl)bicyclo[2.1.1]hexan-1-yl)-4-methylbenzenesulfonamide trifluoroacetate salt]
- IC50 [1]: < 100 nM
- IC50 [2]: < 100 nM
- IC50 [3]: 100 to 500 nM

SMILES: [2H]C([2H])([2H])c1ccc(S(=O)(=O)N(C)C23CCC(C#N)(C2)C3)cc1-c1cnc2c(N)ncnn12 [Example 261, 3-(4-Aminoimidazo[2,1-f][1,2,4]triazin-7-yl)-N-(4-cyanobicyclo[2.1.1]hexan-1-yl)-N-methyl-4-(methyl-d3)benzenesulfonamide]
- IC50 [1]: < 100 nM
- IC50 [2]: < 100 nM
- IC50 [3]: 500 to 2000 nM

SMILES: Cc1cn2c(-c3cc(S(=O)(=O)NC45CCC(CO)(C4)C5)ccc3C)cnc2c(N)n1 [Example 262, 3-(8-Amino-6-methylimidazo[1,2-a]pyrazin-3-yl)-N-(4-(hydroxymethyl)bicyclo[2.1.1]hexan-1-yl)-4-methylbenzenesulfonamide]
- IC50 [1]: 100 to 500 nM
- IC50 [2]: < 100 nM
- IC50 [3]: < 100 nM

SMILES: Cc1cn2c(-c3cc(S(=O)(=O)NC45CCC(C#N)(C4)C5)ccc3C)cnc2c(N)n1 [Example 263, 3-(8-Amino-6-methylimidazo[1,2-a]pyrazin-3-yl)-N-(4-cyanobicyclo[2.1.1]hexan-1-yl)-4-methylbenzenesulfonamide trifluoroacetate salt]
- IC50 [1]: 100 to 500 nM
- IC50 [2]: < 100 nM
- IC50 [3]: 100 to 500 nM
